According to patent US5998390A, “Combination of bisphosphonate and tetracycline” (The Research Foundation of State University of New York, priority 1998, dated 1999):

Key:
osteoclast gelatinase = experiment: Inhibition of osteoclast gelatinase ([3H-methyl] gelatin degradation by culture media); type: biochemical, chicken
Protocol: Post-incubation media from cultured chicken osteoclasts were partially-purified, then incubated with [^3 H-methyl] gelatin for 4 hours at 37° C. in the presence of 1.2 mM APMA to activate any latent Pro-gelatinase. The incubations were carried out in the presence (or absence) of several different concentrations (0.001-1000 μM) of a bisphosphonate, Didronel (Etidronic Acid); where appropriate, CMT-1 was added at a final concentration of 50 μM. After the 4 hour incubation, the reaction was stopped by the addition of 45% Trichloroacetic acid and carrier gelatin, the mixture was centrifuged, and aliquots of the supernatant, containing the radiolabeled gelatin degradation fragments, were counted in a liquid scintillation spectrometer.

[1] = molecular target: T1, Recombinant human MT1 -MMP (MMP-14) (Homo sapiens, UniProt P50281); experiment: β-casein degradation by MT1-MMP; type: biochemical; settings: single agent, 2 μM (suboptimal)
T1 construct: purchased In Vitro-Tek, Berlin, Germany
Protocol: Also, suboptimal inhibitory doses of CMT's and bisphosphonate, alone and in combination, were tested on pure human recombinant MT1 -MMP and MMP-9 activities using a β-casein-degradation assay.
Recombinant human ([…]) MT1 -MMP (also called MMP-14) (In Vitro-Tek, Berlin, Germany) was pretreated with buffer (none), 2 μM CMT-3 and 2 μM bisphosphonate clodronate (clodrinate) and combinations of 2 μM CMT-3 and 2 μM clodrinate for 1 h at 37° C. Subsequently, substrate β-casein (52 μM) was added to the incubation mixtures, and incubations continued for 60 min at 37° C.

collagenase = experiment: Gingival collagenase activity ([3H-methyl] collagen substrate, SDS-PAGE/fluorography) in extracts from treated LPS-injected rats; type: in vivo, rat; settings: Example 3; total collagenase after 1.2 mM APMA activation; vs untreated LPS-injected rats; CMT-8 1 mg/day, clodronate 1 mg/week
Protocol: (§1) LPS (lipopolysaccharide)-induced periodontitis rat model: Twenty four hours before treatment, the rats were injected into the upper anterior gingivae and into the palatal papillae between 1st and 2nd upper molars with 10 μL of LPS (1 mg/ml) or saline solution, for a total of 10 μg LPS per site injected. The LPS injections were repeated every other day to complete the three injections.
(§2) On day 7, all rats were anesthetized, blood samples were collected by cardiac puncture and rats were sacrificed. Tooth mobility was checked and the gingival tissue was dissected and stored at -80° C. for subsequent enzyme analysis. The jaws were defleshed for bone loss determination.
In a third experiment, 30 adult male rats were distributed into the following experimental groups: saline-injected group; groups injected with endotoxin and then administered no drug, CMT-8 alone (1 mg/day), clodronate alone (1 mg/week), or a combination of the same sub-optimal doses of both drugs. The experiment was terminated on day 7. As described above, the gingival tissues were dissected, extracted and the partially-purified extracts analyzed for neutral proteinase (elastase and matrix metalloproteinase) activities, and both tooth mobility and alveolar bone loss were assessed. […]

LPS-injected rats [2] = experiment: Alveolar bone loss in LPS-induced periodontitis rat model (morphometric analysis of defleshed jaws); type: in vivo; settings: for effect on pathologic bone loss: 2 mg
Excerpt: (§3) The activity of combinations of various tetracyclines and bisphosphonates was investigated in vivo. […] This procedure produces marked inflammation in the periodontal tissues and induces elevated levels of tissue-destructive matrix metalloproteinases (MMPs) and serine proteinases such as elastase in the gingiva leading to severe alveolar bone resorption and bone loss around the affected teeth, all within the 7-day experimental protocol. In brief, adult male rats with this experimentally-induced inflammatory disease were either left untreated, or treated with sub-optimal doses of (1) a CMT by itself; (II) a bisphosphonate by itself, or (III) a combination of (I) and (II). At the end of the experimental protocol, tooth mobility and alveolar bone loss, and levels of various tissue destructive MMP collagenases and gelatinases and serine enzymes in the gingiva, were measured.
(§4) For in vivo Examples, Thirty male Sprague-Dawley rates were distributed into 5 groups as follows:
(§5) The treatments were administered by oral gavage once per day (CMT-8) throughout the entire 7 day period, or by a single subcutaneous injection (clodrinate).
as §1, §2
(§6) The first experiment was designed to select sub-optimal doses of both CMT-8 (a chemically-modified, non-antibacterial tetracycline) and clodronate (a bisphosphonate) in the endotoxin-induced bone loss model. Groups of rats (n=5-6 rats/group) were anesthetized and injected directly into the gingival tissues with either saline (control group) or with LPS endotoxin every other day over a 7-day time period. Twenty-four hours after the first injection, groups of rats were administered by oral gavage either 0, 0.5mg, 1 mg, or 2mg CMT-8 daily for the next 6 days. At the end of the experiment, the rats were anesthetized, blood was drawn by intracardiac puncture, the rats were euthanized and the gingival tissues dissected for enzyme analysis. In addition, tooth mobility was scored and, after defleshing the jaws, alveolar bone loss around the teeth was scored morphometrically using a computer-assisted system.
(§7) In a third experiment, 30 adult male rats were distributed into the following experimental groups: saline-injected group; groups injected with endotoxin and then administered no drug, CMT-8 alone (1 mg/day), clodronate alone (1 mg/week), or a combination of the same sub-optimal doses of both drugs. The experiment was terminated on day 7. As described above, the gingival tissues were dissected, extracted and the partially-purified extracts analyzed for neutral proteinase (elastase and matrix metalloproteinase) activities, and both tooth mobility and alveolar bone loss were assessed.

LPS-injected rats [3] = experiment: Tooth mobility in LPS-induced periodontitis rat model; type: in vivo; settings: for effect on tooth mobility / effect on pathologic tooth mobility: Examples 1 and 2; for effect on pathologic tooth mobility: 2 mg; for reduction in tooth mobility: Example 3, day 7, vs untreated LPS-injected rats, CMT-8 1 mg/day oral, clodronate 1 mg/week s.c., single agents not statistically significant, combination p<0.05; for tooth mobility relative to the level in saline-injected control rats: Example 3, single agents at sub-optimal dose
Excerpt: as §3, §4
Group 1: Normal. Saline injected+placebo therapy (CMC)
Group 2: LPS. LPS injected+placebo (CMC)
Group 3: CMT-8. LPS injected+CMT-8 (1 mg/day)
Group 4: Clodronate. LPS injected+Clodronate (1 mg/week)
Group 5: Combo. LPS+CMT-8 (1 mg/day)+Clodronate (1 mg/week)
as §5, §1, §2, §6, §7
In FIG. 1, tooth mobility is based on the following scoring system:
1=slight movement (vestibule-palatal)
2=medium movement (vestibule-palatal)
3=severe movement (vertical mobility in and out of socket)

[4] = 0.5 mg, CMT-8 daily oral gavage, clodronate single subcutaneous injection, Examples 1 and 2
[5] = 1 mg (selected sub-optimal dose), Examples 1 and 2
[6] = CMT-8 daily oral gavage, clodronate single subcutaneous injection, Examples 1 and 2
[7] = Example 3, day 7, CMT-8 1 mg/day oral, clodronate 1 mg/week s.c.
[8] = 0.5 mg, CMT-8 daily oral gavage, clodronate single subcutaneous injection
[9] = 1 mg (selected sub-optimal dose)
[10] = CMT-8 daily oral gavage, clodronate single subcutaneous injection

CC1(O)c2cccc(O)c2C(=O)C2=C(O)C3(O)C(=O)C(C(N)=O)=C(O)CC3CC21 (stereo not drawn) [CMT-1, 4-de(dimethylamino)tetracycline]
inhibition of osteoclast gelatinase activity (osteoclast gelatinase; 50 μM CMT-1, 4 hours at 37° C., 1.2 mM APMA): about 79%

NC(=O)C1=C(O)C2(O)C(=O)C3=C(O)c4c(O)cccc4CC3CC2CC1=O (stereo not drawn) [CMT-3, 6-demethyl-6-deoxy-4-de(dimethylamino)tetracycline]
inhibition of β-casein degradation by MT1-MMP [1]: relative slight inhibition

CC1c2cccc(O)c2C(O)=C2C(=O)[C@]3(O)C(O)=C(C(N)=O)C(=O)C[C@@H]3[C@@H](O)[C@@H]21 (stereo partly drawn) [CMT-8, 6-deoxy-5α-hydroxy-4-de(dimethylamino)tetracycline]
reduction of gingival collagenase activity (collagenase): 22-31%
effect on alveolar bone loss (LPS-injected rats [2]; [4]): no significant effects
effect on alveolar bone loss (LPS-injected rats [2]; [5]): either no, or barely detectable beneficial effects
effect on pathologic bone loss (LPS-injected rats [2]; [6]): essentially returned the pathologic tooth mobility and bone loss, induced by bacteria endotoxin, to control levels
effect on alveolar bone loss (LPS-injected rats [2]; [7]): reduced alveolar bone loss only slightly, if at all
effect on tooth mobility (LPS-injected rats [3]; [8]): no significant effects
effect on tooth mobility (LPS-injected rats [3]; [9]): either no, or barely detectable beneficial effects
effect on pathologic tooth mobility (LPS-injected rats [3]; [10]): essentially returned the pathologic tooth mobility and bone loss, induced by bacteria endotoxin, to control levels
reduction in tooth mobility (LPS-injected rats [3]): 18%
tooth mobility relative to the level in saline-injected control rats (LPS-injected rats [3]): more than twice the level seen in the control rats

CC(O)(P(=O)(O)O)P(=O)(O)O [Didronel, Etidronic Acid]
inhibition of osteoclast gelatinase activity (osteoclast gelatinase; Didronel at 0.001, 0.1, 10, and 1000 μM final concentrations): did not show any detectable inhibition

O=P(O)(O)C(Cl)(Cl)P(=O)(O)O [clodronate, dichloromethane diphosphonic acid]
reduction of gingival collagenase activity (collagenase): 22-31%
effect on alveolar bone loss (LPS-injected rats [2]; [4]): no significant effects
effect on alveolar bone loss (LPS-injected rats [2]; [5]): either no, or barely detectable beneficial effects
effect on pathologic bone loss (LPS-injected rats [2]; [6]): essentially returned the pathologic tooth mobility and bone loss, induced by bacteria endotoxin, to control levels
effect on alveolar bone loss (LPS-injected rats [2]; [7]): reduced alveolar bone loss only slightly, if at all
inhibition of β-casein degradation by MT1-MMP [1]: relative slight inhibition
effect on tooth mobility (LPS-injected rats [3]; [8]): no significant effects
effect on tooth mobility (LPS-injected rats [3]; [9]): either no, or barely detectable beneficial effects
effect on pathologic tooth mobility (LPS-injected rats [3]; [10]): essentially returned the pathologic tooth mobility and bone loss, induced by bacteria endotoxin, to control levels
reduction in tooth mobility (LPS-injected rats [3]): 18%
tooth mobility relative to the level in saline-injected control rats (LPS-injected rats [3]): more than twice the level seen in the control rats
